Target: P-glycoprotein (Homo sapiens, UniProt P08183)
Experimental: P-glycoprotein inhibition has been determined with an in vitro assay. […] Therefore, the initial pool of compounds screened included excipients that were acceptable for oral or IV use and included PEG in the chemical structure. Compounds were first screened for toxicity in the NIH3T3 cell line and then tested for P-gp inhibition with paclitaxel using the protocol outlined below:
Day 0: Seed cells and incubate.
Day 1: Add potential P-gp inhibitor at fixed concentration and paclitaxel at various concentrations and incubate for 2 days.
Day 3: Add MTT and extraction/lysis buffer.
Day 4: Read absorbance to measure cell growth. Calculate IC50 to determine amount of paclitaxel required for cell death
After calculations of IC50 values, relative rank order of the compounds were determined.

P-glycoprotein, sequence (P08183 whole entry): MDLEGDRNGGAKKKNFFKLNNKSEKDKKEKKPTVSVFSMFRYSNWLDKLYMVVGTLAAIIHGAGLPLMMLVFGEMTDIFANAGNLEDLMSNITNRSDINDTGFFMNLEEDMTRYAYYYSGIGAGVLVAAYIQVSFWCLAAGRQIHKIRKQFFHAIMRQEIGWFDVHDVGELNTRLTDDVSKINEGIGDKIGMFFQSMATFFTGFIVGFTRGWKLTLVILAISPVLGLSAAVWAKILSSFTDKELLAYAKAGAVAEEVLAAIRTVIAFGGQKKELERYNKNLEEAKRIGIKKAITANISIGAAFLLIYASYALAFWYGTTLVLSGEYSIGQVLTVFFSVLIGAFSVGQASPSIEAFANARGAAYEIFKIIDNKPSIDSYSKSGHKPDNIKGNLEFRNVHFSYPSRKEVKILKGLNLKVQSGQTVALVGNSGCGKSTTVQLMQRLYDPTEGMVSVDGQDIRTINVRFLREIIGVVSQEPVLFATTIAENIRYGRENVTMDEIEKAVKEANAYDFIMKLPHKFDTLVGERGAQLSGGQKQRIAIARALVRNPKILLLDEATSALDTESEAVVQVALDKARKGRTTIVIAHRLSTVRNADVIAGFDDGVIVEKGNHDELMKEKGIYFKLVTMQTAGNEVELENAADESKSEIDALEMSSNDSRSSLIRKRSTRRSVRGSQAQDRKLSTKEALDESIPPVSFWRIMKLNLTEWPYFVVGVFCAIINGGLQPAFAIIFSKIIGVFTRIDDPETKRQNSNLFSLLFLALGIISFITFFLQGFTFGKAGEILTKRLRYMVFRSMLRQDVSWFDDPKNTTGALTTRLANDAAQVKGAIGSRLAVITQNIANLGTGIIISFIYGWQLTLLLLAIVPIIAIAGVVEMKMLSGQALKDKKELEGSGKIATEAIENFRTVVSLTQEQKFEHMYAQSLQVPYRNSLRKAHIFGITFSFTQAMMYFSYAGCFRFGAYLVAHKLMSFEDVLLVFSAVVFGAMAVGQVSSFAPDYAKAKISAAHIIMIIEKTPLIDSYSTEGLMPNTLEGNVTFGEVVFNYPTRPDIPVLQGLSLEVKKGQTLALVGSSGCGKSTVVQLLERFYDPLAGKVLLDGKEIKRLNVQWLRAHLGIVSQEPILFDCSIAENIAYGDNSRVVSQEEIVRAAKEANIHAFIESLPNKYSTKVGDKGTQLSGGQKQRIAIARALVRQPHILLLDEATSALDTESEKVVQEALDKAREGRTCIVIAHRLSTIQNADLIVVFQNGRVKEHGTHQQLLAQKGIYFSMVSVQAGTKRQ

Substance	P-gp inhibition measured by an IC50 ratio
PEG-100 stearate	> 1.0
polysorbate 80	> 1.0

From patent US20040092428A1, “Oral pharmaceuticals formulation comprising paclitaxel, derivatives and methods of administration thereof” (priority 2001, published 2004)
